In ChEMBL document CHEMBL3272271, “Folate antagonists. 13. 2,4-Diamino-6-](alpha,alpha,alpha-trifluoro-m-tolyl)thio]quinazoline and related 2,4-diamino-6-[(phenyl- and naphthyl)thio]quinazolines, a unique class of antimetabolites with extraordinary antimalarial and antibacterial effects” (J Med Chem, 1978):
In brackets after ≈: the same amount, converted by molar mass. Activity calls are given as the source filed them. The calls are words filed in the database; no cut-off is given here.

Key:
[1] = test system: Plasmodium gallinaceum; test: Antimalarial activity against trophozoite-induced Plasmodium gallinaceum infected in white leghorn chicken assessed as disease cure from parasite infection at 320 mg/kg, sc administered 72 hrs after infection; format: functional, organism-based; set-up: dose 320 mg/kg
[2] = test system: Plasmodium gallinaceum; test: Antimalarial activity against trophozoite-induced Plasmodium gallinaceum infected in white leghorn chicken assessed as disease cure from parasite infection at 160 mg/kg, sc administered 72 hrs after infection; format: functional, organism-based; set-up: dose 160 mg/kg
[3] = test system: Plasmodium berghei; test: Antimalarial activity against Plasmodium berghei infected in mouse assessed as disease cure from parasite infection at 640 mg/kg, sc administered 72 hrs after infection; format: functional, organism-based; set-up: dose 640 mg/kg
[4] = test system: Plasmodium berghei; test: Antimalarial activity against Plasmodium berghei infected in mouse assessed as disease cure from parasite infection at 320 mg/kg, sc administered 72 hrs after infection; format: functional, organism-based; set-up: dose 320 mg/kg
[5] = test system: Plasmodium berghei; test: Antimalarial activity against Plasmodium berghei infected in mouse assessed as disease cure from parasite infection at 160 mg/kg, sc administered 72 hrs after infection; format: functional, organism-based; set-up: dose 160 mg/kg
[6] = test system: Plasmodium berghei; test: Antimalarial activity against Plasmodium berghei infected in mouse assessed as disease cure from parasite infection at 80 mg/kg, sc administered 72 hrs after infection; format: functional, organism-based; set-up: dose 80 mg/kg
[7] = test system: Plasmodium berghei; test: Antimalarial activity against Plasmodium berghei infected in mouse assessed as disease cure from parasite infection at 40 mg/kg, sc administered 72 hrs after infection; format: functional, organism-based; set-up: dose 40 mg/kg
[8] = test system: Plasmodium berghei; test: Antimalarial activity against Plasmodium berghei infected in mouse assessed as disease cure from parasite infection at 20 mg/kg, sc administered 72 hrs after infection; format: functional, organism-based; set-up: dose 20 mg/kg
[9] = test system: Enterococcus faecalis; test: Antibacterial activity against Streptococcus faecalis MGH-2 by gradient plate test; format: functional
[10] = test system: Staphylococcus aureus; test: Antibacterial activity against Staphylococcus aureus UC-96 by gradient plate test; format: functional
[11] = test system: Staphylococcus aureus; test: Antibacterial activity against drug-resistant Staphylococcus aureus S18713 by gradient plate test; format: functional
[12] = test system: Pseudomonas aeruginosa; test: Antibacterial activity against Pseudomonas aeruginosa 28 by gradient plate test; format: functional
[13] = test system: Escherichia coli; test: Antibacterial activity against Escherichia coli Vogel by gradient plate test; format: functional
[14] = test system: Shigella sonnei; test: Antibacterial activity against Shigella sonnei C-10 by gradient plate test; format: functional
[15] = test system: Plasmodium berghei; test: Antimalarial activity against Plasmodium berghei infected in mouse assessed as increase in mean survival days of host at 160 mg/kg, sc administered 72 hrs after infection relative to control; format: functional; conditions: route subcutaneous
[16] = test system: Plasmodium berghei; test: Antimalarial activity against Plasmodium berghei infected in mouse assessed as increase in mean survival days of host at 80 mg/kg, sc administered 72 hrs after infection relative to control; format: functional; conditions: route subcutaneous
[17] = test system: Plasmodium berghei; test: Antimalarial activity against Plasmodium berghei infected in mouse assessed as increase in mean survival days of host at 40 mg/kg, sc administered 72 hrs after infection relative to control; format: functional; conditions: route subcutaneous
[18] = test system: Plasmodium berghei; test: Antimalarial activity against Plasmodium berghei infected in mouse assessed as increase in mean survival days of host at 20 mg/kg, sc administered 72 hrs after infection relative to control; format: functional; conditions: route subcutaneous
[19] = test system: Plasmodium berghei; test: Antimalarial activity against Plasmodium berghei infected in mouse assessed as increase in mean survival days of host at 10 mg/kg, sc administered 72 hrs after infection relative to control; format: functional; conditions: route subcutaneous
[20] = test system: Plasmodium berghei; test: Antimalarial activity against Plasmodium berghei infected in mouse assessed as increase in mean survival days of host at 5 mg/kg, sc administered 72 hrs after infection relative to control; format: functional; conditions: route subcutaneous
[21] = test system: Plasmodium berghei; test: Antimalarial activity against trophozoite-induced Plasmodium berghei infected in mouse assessed as daily dose required to suppression of 90% parasite infection administered with diet for 6 days; format: functional
[22] = test system: Plasmodium berghei; test: Ratio of quinine hydrochloride SD90 to compound SD90 for trophozoite-induced Plasmodium berghei infected in mouse assessed as daily dose required to suppression of 90% parasite infection administered with diet for 6 days; format: functional
[23] = test system: Plasmodium berghei; test: Antimalarial activity against Plasmodium berghei infected in mouse assessed as increase in mean survival days of host at 2.5 mg/kg, sc administered 72 hrs after infection relative to control; format: functional; conditions: route subcutaneous
[24] = test system: Plasmodium berghei; test: Antimalarial activity against Plasmodium berghei infected in mouse assessed as increase in mean survival days of host at 1.25 mg/kg, sc administered 72 hrs after infection relative to control; format: functional; conditions: route subcutaneous
[25] = test system: Mycobacterium tuberculosis; test: Antibacterial activity against Mycobacterium tuberculosis H37Ra by gradient plate test; format: functional
[26] = test system: Plasmodium berghei; test: Antimalarial activity against Plasmodium berghei infected in mouse assessed as increase in mean survival days of host at 320 mg/kg, sc administered 72 hrs after infection relative to control; format: functional; conditions: route subcutaneous
[27] = test system: Plasmodium gallinaceum; test: Antimalarial activity against sporozoite-induced Plasmodium gallinaceum infected in white leghorn chicken assessed as disease cure from parasite infection at 320 mg/kg, sc administered 72 hrs after infection; format: functional, organism-based; set-up: dose 320 mg/kg
[28] = test system: Plasmodium gallinaceum; test: Antimalarial activity against sporozoite-induced Plasmodium gallinaceum infected in white leghorn chicken assessed as disease cure from parasite infection at 160 mg/kg, sc administered 72 hrs after infection; format: functional, organism-based; set-up: dose 160 mg/kg
[29] = test system: Plasmodium gallinaceum; test: Antimalarial activity against sporozoite-induced Plasmodium gallinaceum infected in white leghorn chicken assessed as disease cure from parasite infection at 80 mg/kg, sc administered 72 hrs after infection; format: functional, organism-based; set-up: dose 80 mg/kg
[30] = test system: Plasmodium gallinaceum; test: Antimalarial activity against trophozoite-induced Plasmodium gallinaceum infected in white leghorn chicken assessed as increase in mean survival days of host at 320 mg/kg, sc administered 72 hrs after infection relative to control; format: functional; conditions: route subcutaneous
[31] = test system: Plasmodium gallinaceum; test: Antimalarial activity against trophozoite-induced Plasmodium gallinaceum infected in white leghorn chicken assessed as increase in mean survival days of host at 160 mg/kg, sc administered 72 hrs after infection relative to control; format: functional; conditions: route subcutaneous
[32] = test system: Plasmodium gallinaceum; test: Antimalarial activity against trophozoite-induced Plasmodium gallinaceum infected in white leghorn chicken assessed as increase in mean survival days of host at 80 mg/kg, sc administered 72 hrs after infection relative to control; format: functional; conditions: route subcutaneous
[33] = test system: Plasmodium gallinaceum; test: Antimalarial activity against trophozoite-induced Plasmodium gallinaceum infected in white leghorn chicken assessed as increase in mean survival days of host at 40 mg/kg, sc administered 72 hrs after infection relative to control; format: functional; conditions: route subcutaneous
[34] = test system: Plasmodium gallinaceum; test: Antimalarial activity against trophozoite-induced Plasmodium gallinaceum infected in white leghorn chicken assessed as increase in mean survival days of host at 20 mg/kg, sc administered 72 hrs after infection relative to control; format: functional; conditions: route subcutaneous
[35] = test system: Plasmodium gallinaceum; test: Antimalarial activity against trophozoite-induced Plasmodium gallinaceum infected in white leghorn chicken assessed as increase in mean survival days of host at 10 mg/kg, sc administered 72 hrs after infection relative to control; format: functional; conditions: route subcutaneous

CN(Cc1ccc(Cl)c(Cl)c1)c1ccc2nc(N)nc(N)c2c1
Activity [1]: Active
Activity [2]: Active
Activity [3]: Active
Activity [4]: Active
Activity [5]: Active
Activity [6]: Active
Activity [7]: Active
Activity [8]: Active

Nc1nc(N)c2cc(Sc3cc(Cl)ccc3Cl)ccc2n1
MIC [9]: < 0.25 µg/mL
MIC [10]: < 0.25 µg/mL
MIC [11]: < 0.25 µg/mL
MIC [12]: > 25 µg/mL
MIC [13]: 1 µg/mL (≈ 2.97 µM)
MIC [14]: 10 µg/mL (≈ 29.7 µM)
MST [15]: 8.8 days
MST [16]: 9.8 days
MST [17]: 8.2 days
MST [18]: 5.9 days
MST [19]: 2.9 days
MST [20]: 2.3 days
Activity [3]: Active
Activity [4]: Active
Activity [5]: Active
SD90 [21]: 4.5 mg/kg/day
Ratio [22]: 17

Cc1c(Sc2ccc3ccccc3c2)ccc2nc(N)nc(N)c12
MIC [9]: < 2.5 µg/mL
MIC [10]: < 2.5 µg/mL
MIC [11]: < 2.5 µg/mL
MIC [12]: > 25 µg/mL
MIC [13]: < 2.5 µg/mL
MIC [14]: < 2.5 µg/mL
MST [18]: 20.9 days
MST [19]: 12.9 days
MST [20]: 10.9 days
MST [23]: 6.5 days
MST [24]: 1.9 days
Activity [3]: Active
Activity [4]: Active
Activity [5]: Active
Activity [6]: Active
Activity [7]: Active
Activity [8]: Active

Nc1nc(N)c2cc(Sc3cccc(Cl)c3)ccc2n1
MIC [9]: 10 µg/mL (≈ 33 µM)
MIC [10]: 2.5 µg/mL (≈ 8.26 µM)
MIC [11]: 5 µg/mL (≈ 16.5 µM)
MIC [12]: > 25 µg/mL
MIC [13]: 10 µg/mL (≈ 33 µM)
MIC [14]: 20 µg/mL (≈ 66.1 µM)
MIC [25]: > 25 µg/mL
MST [26]: 20.9 days
MST [15]: 4.9 days
MST [16]: 4.3 days
MST [17]: 3.5 days
MST [18]: 0.5 days
MST [19]: 0.5 days
Activity [3]: Active
Activity [4]: Active

Nc1nc(N)c2c(Cl)c(Sc3cccc(C(F)(F)F)c3)ccc2n1
MIC [9]: < 0.25 µg/mL
MIC [10]: < 0.25 µg/mL
MIC [11]: < 0.25 µg/mL
MIC [12]: > 25 µg/mL
MIC [13]: 0.5 µg/mL (≈ 1.35 µM)
MIC [14]: 2 µg/mL (≈ 5.39 µM)
MIC [25]: 10 µg/mL (≈ 27 µM)
Activity [27]: Active
Activity [28]: Active
Activity [29]: Active
MST [15]: 24.9 days
MST [16]: 19.9 days
MST [17]: 14.7 days
MST [18]: 5.9 days
Activity [3]: Active
Activity [4]: Active
Activity [5]: Active
Activity [6]: Active
Activity [7]: Active

Nc1nc(N)c2cc(Sc3ccc(-c4ccccc4)cc3)ccc2n1
MST [16]: 15.6 days
MST [17]: 12.1 days
MST [18]: 7.9 days
MST [19]: 6.5 days
MST [20]: 1.1 days
Activity [4]: Active
Activity [5]: Active
Activity [6]: Active

Nc1nc(N)c2cc(Sc3ccccc3Cl)ccc2n1
MIC [9]: < 0.25 µg/mL
MIC [10]: < 0.25 µg/mL
MIC [11]: < 0.25 µg/mL
MIC [12]: > 25 µg/mL
MIC [13]: < 0.25 µg/mL
MIC [14]: 2 µg/mL (≈ 6.61 µM)
MST [26]: 18.9 days
MST [15]: 10.9 days
MST [16]: 8.1 days
MST [17]: 0.5 days
MST [18]: 0.5 days
MST [19]: 0.3 days
MST [20]: 0.3 days
Activity [4]: Active
Activity [5]: Active
MST [30]: 20.8 days
MST [31]: 19.8 days
MST [32]: 10.2 days
MST [33]: 7.6 days
MST [34]: 6 days
MST [35]: 0 days

CN(Cc1ccc(Cl)c(Cl)c1)c1ccc2nc(N)nc(N)c2c1.Cl
SD90 [21]: 0.16 mg/kg/day
Ratio [22]: 470
